Experimental data reported in ChEMBL document CHEMBL1201862, “PubChem BioAssay data set” (2004).
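Growth conditions: 96-well plates. Treatment: test compound, 48 hours, 5 concentrations. Analysis: linear interpolation between bracketing concentrations; unreached endpoints set to highest concentration. GI50 marks 50% less growth.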 Activity calls are given as the source filed them. No stated cut-off is given here; in the data, active = GI50 up to about 1.1 µM and inactive = higher.

Key:
Experiment in all cases: DTP human tumour cell line panel, 48 h
[1] = system: NCI-H23
[2] = system: SK-MEL-2
[3] = system: K562
[4] = system: DU-145
[5] = system: NCI-H460
[6] = system: SK-MEL-5
[7] = system: RPMI-8226
[8] = system: HT-29
[9] = system: COLO 205
[10] = system: MDA-N
[11] = system: OVCAR-3
[12] = system: 786-0
[13] = system: HCT-116
[14] = system: HOP-92
[15] = system: A498
[16] = system: OVCAR-4
[17] = system: UACC-257
[18] = system: SK-MEL-28
[19] = system: SR

Measured: GI50

CCCn1cnc2c(SCC(=O)O)nc(N)nc21
inactive: [1] > 100 µM | [2] > 100 µM | [3] > 100 µM | [4] > 100 µM | [5] > 100 µM | [6] > 100 µM | [7] > 100 µM | [8] > 100 µM | [9] > 100 µM | [10] > 100 µM | [11] > 100 µM | [12] > 100 µM | [13] > 100 µM | [14] > 100 µM | [15] > 100 µM | [16] > 100 µM | [17] > 100 µM | [18] > 100 µM | [19] > 100 µM

Cc1cccc(C(=O)O)c1CC1NCCC2c3ccccc3NC12 (stereo not given)
inactive: [1] > 100 µM | [2] > 100 µM | [3] > 100 µM | [4] > 100 µM | [5] > 100 µM | [6] > 100 µM | [7] > 100 µM | [8] > 100 µM | [9] > 100 µM | [10] > 100 µM | [11] 20.7 µM | [12] > 100 µM | [13] > 100 µM | [14] > 100 µM | [15] > 100 µM | [16] > 100 µM | [17] > 100 µM | [18] > 100 µM | [19] > 100 µM

CC(C)[Si]1(C(C)C)OCC2OC(n3c(C(=O)c4ccccc4)cc(=O)[nH]c3=O)CC2O[Si](C(C)C)(C(C)C)O1 (stereo not given)
inactive: [1] 2.52 µM | [2] 5.05 µM | [3] 3.05 µM | [4] 11.6 µM | [5] 3.58 µM | [6] 4.37 µM | [7] 2.85 µM | [8] 1.9 µM | [9] 3.72 µM | [10] 3.2 µM | [11] 2.08 µM | [12] 3.05 µM | [13] 3.15 µM | [14] 2.33 µM | [15] 11.4 µM | [16] 2.93 µM | [17] 2.34 µM | [18] 3.72 µM | [19] 2.61 µM

COC(=O)c1c(O)ccc2c1C1(Cc3ccccc3C1=O)C(O)O2 (stereo not given)
inactive: [1] 33.2 µM | [2] 28.3 µM | [3] 12.8 µM | [4] 24.4 µM | [5] 8.85 µM | [6] 34.3 µM | [7] 2.88 µM | [8] 43.2 µM | [9] 35.6 µM | [10] 13.7 µM | [11] 18.6 µM | [12] 14.1 µM | [13] 15.6 µM | [14] 16.6 µM | [15] > 100 µM | [16] 16.2 µM | [17] > 100 µM | [18] 36.9 µM | [19] 4.49 µM

Cn1cncc1CC1COC(=O)C1C(O)c1ccccc1 (stereo not given)
inactive: [1] > 100 µM | [2] > 100 µM | [3] > 100 µM | [4] > 100 µM | [5] > 100 µM | [6] > 100 µM | [7] > 100 µM | [8] > 100 µM | [9] > 100 µM | [10] > 100 µM | [11] > 100 µM | [12] > 100 µM | [13] > 100 µM | [14] > 100 µM | [15] > 100 µM | [16] > 100 µM | [17] > 100 µM | [18] > 100 µM | [19] > 100 µM

CNC(=O)[C@H](Cc1ccccc1)NC(=O)N(CCC#N)CCN(C(=O)N[C@@H](Cc1ccccc1)C(=O)OC)c1ccccc1
inactive: [1] > 100 µM | [2] > 100 µM | [3] > 100 µM | [4] > 100 µM | [5] > 100 µM | [6] > 100 µM | [7] > 100 µM | [8] > 100 µM | [9] > 100 µM | [10] > 100 µM | [11] > 100 µM | [12] > 100 µM | [13] > 100 µM | [14] > 100 µM | [15] > 100 µM | [16] > 100 µM | [17] > 100 µM | [18] > 100 µM | [19] > 100 µM

COCCCNC(=O)C1=C(C)NC(C)=C(C(=O)NCCCOC)C1
inactive: [1] > 100 µM | [2] > 100 µM | [3] 46 µM | [4] > 100 µM | [5] > 100 µM | [6] > 100 µM | [7] > 100 µM | [8] > 100 µM | [9] > 100 µM | [10] > 100 µM | [11] > 100 µM | [12] > 100 µM | [13] > 100 µM | [14] 89.3 µM | [15] > 100 µM | [16] > 100 µM | [17] > 100 µM | [18] > 100 µM | [19] > 100 µM

Cc1nc2ccccc2c(-n2cccn2)c1CCn1cccn1
inactive: [1] > 100 µM | [2] > 100 µM | [3] 55 µM | [4] > 100 µM | [5] > 100 µM | [6] 46.6 µM | [7] > 100 µM | [8] > 100 µM | [9] 96.6 µM | [10] > 100 µM | [11] 40.4 µM | [12] > 100 µM | [13] > 100 µM | [14] 52.8 µM | [15] 46.3 µM | [16] 23.8 µM | [17] > 100 µM | [18] > 100 µM | [19] 71.4 µM

COc1nc(N=P(c2ccccc2)(c2ccccc2)c2ccccc2)cc(=O)[nH]1
inactive: [1] > 100 µM | [2] > 100 µM | [3] > 100 µM | [4] > 100 µM | [5] > 100 µM | [6] > 100 µM | [7] > 100 µM | [8] > 100 µM | [9] > 100 µM | [10] > 100 µM | [11] > 100 µM | [12] > 100 µM | [13] > 100 µM | [14] > 100 µM | [15] > 100 µM | [16] > 100 µM | [17] > 100 µM | [18] > 100 µM | [19] > 100 µM

O=C(c1cc(Cl)cc(Cl)c1)N1CCN(C(=O)c2cc(Cl)cc(Cl)c2)C1=S
inactive: [1] 17.4 µM | [2] 16.8 µM | [3] 8.39 µM | [4] 9.18 µM | [5] 16.6 µM | [6] 16.1 µM | [7] 2.38 µM | [8] 20.2 µM | [9] 15.9 µM | [10] 14.1 µM | [11] 10.9 µM | [12] 2.4 µM | [13] 16.4 µM | [14] 6.65 µM | [15] 15.5 µM | [16] 19.1 µM | [17] 13.3 µM | [18] 23.2 µM | [19] 3.26 µM
